Data set [1] concerns the target ACAT (blood vessel wall). Nature of the data set: ACAT inhibitory action, microsome enzyme from blood vessel wall (stethartery). In kind it is biochemical, rabbits. To be noted: for IC50: A = the blood vessel wall, microsome from stethartery of rabbits fed 1% cholesterol feed, 14C-oleoyl-CoA, 37°C, five minutes; for IC50 (B) /IC50 (A): ratio small intestine / blood vessel wall. As for the experimental part: (§1) Microsome was prepared by a conventional method from stethartery of rabbits fed for eight weeks with a 1% cholesterol feed and was suspended in a 0.15M phosphate buffer (pH 7.4) to provide an enzyme solution. An enzyme solution derived from small intestine was prepared from small intestine or rabbits fed with normal feed. […] The solvent layer was concentrated to dryness, the residue was dissolved in hexane and the solution was spotted on a TLC plate (manufactured by Merck) followed by developing with hexane : ether : acetic acid (75:25:1). Radioactivity of the resulting cholesterol ester fraction was measured by a BAS 2000 (manufactured by Fuji Photo Film) and IC50 values were determined from a comparative calculation with the control to which only DMSO was added.

The subject of data set [2] is HepG2 cells. Kind of data set: ACAT inhibitory action (anti-foaming action) in HepG2 cells.
Experimental: (§2) The medium was removed and, after washing with PBS twice, extraction was conducted with 1.5 ml of hexane : isopropanol (3:2) followed by concentrating to dryness. The extract was dissolved in 0.2 ml of isopropanol containing 10% of 10% Triton X-100 and total cholesterol (TC) and free cholesterol (FC) were determined by a Cholesterol E Test Wako (Wako Pure Chemicals) and a Free Cholesterol E Test Wako (Wako Pure Chemicals), respectively. Residue of the cells after extraction was solubilized with 0.25 ml of 2N NaOH at 30°C for 30 minutes and amount of protein was determined by means of a BCA Protein Assay Reagent (Pierce). From the difference between TC and FC, amount of cholesterol ester per protein was calculated and then IC50 was determined by means of a comparative calculation with the control.
Data set [3] has as its target ACAT (small intestine). Nature of the data set: ACAT inhibitory action, enzyme from small intestine. It is filed as biochemical. To be noted: B = the small intestine of rabbits fed normal feed; 14C-oleoyl-CoA, 37°C, three minutes. As for the experimental part:
as §1

For data set [4], the system named is J774 cells. Nature of the data set: ACAT inhibitory action (anti-foaming action) in J774 cells. To be noted: for IC50 (HepG2) /IC50 (J774): ratio HepG2 / J774, 1080 min.
Experimental: as §2
Data set [5] is described as follows: Disintegration test: solubility in liquid No.1 for disintegration test of the Japanese Pharmacopoeia. Conditions: jp disintegration liquid no.1; pH 1.2; liquid No.1, shaken two hours, room temperature one hour, 0.45 µm filter. It is filed as physicochemical. As for the experimental part:
Absorbance of a mixture of this filtrate with methanol in the same amounts was measured and, from the previously-determined ε1% 1cm values, solubility was calculated.

The mark [6] stands for this setting: Homo sapiens, HepG2, 18 h, read-out: Enzyme (HepG2) IC50(µM).
Setting [7] is: Mus musculus, J774, 18 h, read-out: Enzyme (J774) IC50(µM).

Values after ≈ are worked out from the molar mass of the structure shown. Like-named read-outs stand apart in the source and are kept apart here.

As a reminder, the IC50 is the midpoint of a concentration-inhibition curve. The solubility is how much of the substance goes into solution per volume. High values mean much dissolved substance, low ones little dissolved substance.

On to `CC(C)c1cccc(C(C)C)c1NC(=O)CN1CCN(CCSc2nc3cccc(C(F)(F)F)c3o2)CC1` [Example 85, 2-[4-[2-(7-trifluoromethylbenzoxazol-2-ylthio)ethyl]piperazin-1-yl]-N-(2,6-diisopropylphenyl)acetamide], for which the IC50 in data set [1] was 12 nM; in data set [2] (setting [6]), more than 1 µM; in data set [3], 59 nM; in data set [4] (setting [7]) it was 0.019 µM. Further, the “IC50 (B) /IC50 (A)” value in data set [1] was found to be 4.9. Also, the “IC50 (HepG2) /IC50 (J774)” value in data set [4] is on record as more than 53.
In the case of `CCOCCOc1cc(C(C)C)c(NC(=O)CN2CCN(CCSc3nc4ccccc4o3)CC2)c(C(C)C)c1` [Example 78, 2-[4-[2-(benzoxazol-2-ylthio)ethyl]piperazin-1-yl]-N-[2,6-diisopropyl-4-(2-ethoxyethyl)oxyphenyl)acetamide], the IC50 in data set [1] stood at 40 nM; in data set [2] (setting [6]) it was 0.82 µM; in data set [3] it was 210 nM; in data set [4] (setting [7]), 0.014 µM. Besides, in data set [1], the “IC50 (B) /IC50 (A)” value was 5.3. Moreover, in data set [4], the “IC50 (HepG2) /IC50 (J774)” value stood at 58.6.
On to `COC(=O)c1cccc2nc(SCCCN3CCN(CC(=O)Nc4c(C(C)C)cccc4C(C)C)CC3)oc12` [Example 10, 2-[4-[3-(7-methoxycarbonylbenzoxazol - 2-ylthio)propyl]piperazin-1-yl]-N-(2,6-diisopropylphenyl) acetamide], for which the IC50 in data set [1] stood at 35 nM; in data set [3], 39 nM. In addition, the “IC50 (B) /IC50 (A)” value in data set [1] came to 1.1. For the same molecule, in data set [4], the “IC50 (HepG2) /IC50 (J774)” value amounted to 18.2.
As for `COC(=O)c1cccc2oc(SCCN3CCN(CC(=O)Nc4c(C(C)C)cccc4C(C)C)CC3)nc12` [Example 5, 2-[4-[2-(4-methoxycarbonylbenzoxazol-2-ylthio)ethyl]-piperazin-1-yl]-N-(2,6-diisopropylphenyl) acetamide], in data set [1], half-maximal inhibition (IC50) was put at 56 nM and the “IC50 (B) /IC50 (A)” value turned out to be 2.3. In data set [3], this molecule yielded an IC50 of 130 nM. Moreover, the “IC50 (HepG2) /IC50 (J774)” value in data set [4] is 14.5.
`CCCCCCCN(CCCCCSc1nc(-c2ccccc2)c(-c2ccccc2)[nH]1)c1nc2ccccc2o1` [Control 4, reference compound]: the IC50 in data set [1] was 26 nM; in data set [2] (read-out: Enzyme (HepG2) IC50, HepG2 cells, 10 µg/ml 25-OH cholesterol, 18 hours, cholesterol ester per protein) it was 0.75 µM; in data set [3], 37 nM; in data set [4] (read-out: Enzyme (J774) IC50, J774 cells, 10 µg/ml 25-OH cholesterol, 18 hours, cholesterol ester per protein) it was 0.12 µM. For the same molecule, the “IC50 (B) /IC50 (A)” value in data set [1] is 1.4. The “IC50 (HepG2) /IC50 (J774)” value in data set [4] is on record as 6.3.
On to `CCCCCCCCCN(CC(C)(C)C)C(=O)N[C@H]1CCCC[C@@H]1OC(=O)CCNC(=O)C1OC(C)(C)OCC1(C)C` (stereo partly shown) [Control 3, reference compound], for which the IC50 in data set [1] amounted to 34 nM; in data set [3], 56 nM.
In the case of `CCCC(CCCCC(=O)Nc1c(C(C)C)cccc1C(C)C)Sc1nc2ccccc2o1` (stereo not shown) [Control 5, 6-(Benzoxazol-2-ylthio)-N-(2,6-diisopropylphenyl)nonanamide], the solubility in data set [5] was 0.05 µg/mL (≈ 0.107 µM).
In the case of `COc1cc(C(C)C)c(NC(=O)CN2CCN(CCSc3nc4ccccc4o3)CC2)c(C(C)C)c1` [Example 75, 2-[4-[2-(benzoxazol-2-ylthio)ethyl]-piperazin-1-yl]-N-(2,6-diisopropyl-4-methoxyphenyl)-acetamide], the IC50 is 38 nM in data set [1], more than 10 µM in data set [2] (setting [6]), 210 nM in data set [3] and 0.1 µM in data set [4] (setting [7]). Besides, in data set [1], the “IC50 (B) /IC50 (A)” value stood at 5.5. In data set [4], the “IC50 (HepG2) /IC50 (J774)” value is on record as more than 100.
As for `CC(C)c1cccc(C(C)C)c1NC(=O)C(C)(C)CCCOc1ccc2c(c1)C=C(c1nccn1C)C(CCc1ccc(F)cc1)O2` (stereo not shown) [Control 1, 5-[2-(2-(4-Fluorophenyl)ethyl)-3-(1-methyl-1H-imidazol-2-yl)-2H-1-benzopyran-6-yl]oxy-2,2-dimethyl-N-(2,6-diisopropylphenyl) -pentanamide, reference compound], the IC50 in data set [1] amounted to 450 nM; in data set [3] it was 870 nM; in data set [4] (setting [7]), 0.56 µM. Also, the “IC50 (B) /IC50 (A)” value in data set [1] came to 1.9. In data set [4], the “IC50 (HepG2) /IC50 (J774)” value was determined as 9.5.

The record behind these values is patent publication EP0987254B1, “NOVEL CYCLIC DIAMINE COMPOUNDS AND MEDICINE CONTAINING THE SAME” (Kowa Co., Ltd., priority 1997, dated 1998).
